The record followed here is patent US9670206B2, “Pyrido[4,3-B]pyrazine-2-carboxamides as neurogenic agents for the treatment of neurodegenerative disorders” (Hoffmann-La Roche Inc., priority 2013, dated 2017).

The structures appear in SMILES notation.

The assay relates to human embryonic stem cell derived neural stem cells (NSCs). Nature of the assay: Neural stem cell proliferation assay (neurogenesis assay, ATP levels by CellTiterGlo). In kind it is cell-based. Particulars: 96 h, compound concentration at which 150% activity of control (100%) is reached, NSC proliferation, ATP readout after 4 days incubation. As to the method:
Neural Stem Cell Proliferation Assay
Neurogenic properties of small molecules are determined based on the proliferation of human embryonic stem cell derived neural stem cells (NSCs) which were derived via a dual smad inhibition as previously described (Chambers, S. M., et al., Highly efficient neural conversion of human ES and iPS cells by dual inhibition of SMAD signaling, Nature biotechnology, 2009. 27(3): p. 275-80.) Compounds respond is measured by the increase in cells based on ATP levels (Promega:CellTiterGlo®) after an incubation period of 4 days. NSCs are thawed and expanded over 3 passages. On the 14th day, NSCs are seeded in Polyornithin/Laminin coated 384 well plates at a cell density of 21,000 cells/cm^2 in a media volume of 38 μl. 4 hours after cell seeding, compound solutions are added at a volume of 2 μl. Stock solutions of the compounds (water, 5% DMSO) are diluted to obtain a dose response (11 points, dilution factor is 2), ranging from 8 μM to 8 nM. Controls are run to consistently determine the neurogenic properties of the cells: Negative (neutral) control is cell culture Media (final DMSO concentration: 0.25%). Positive controls are: • 1. cell culture Media+100 ng/ml FGF2 (final DMSO concentration: 0.1%) • 2. cell culture Media+20 ng/ml EGF (final DMSO concentration: 0.1%) • 3. cell culture Media+100 ng/ml Wnt3a (final DMSO concentration: 0.1%) After 4 days incubation at 37° C., 5% CO2, the amount of ATP per well is quantified. The ATP concentration is proportional to the cell number. ATP is quantified by using the Promega CellTiterGlo® kit. The CellTiterGlo® reagents contain a cell lysis buffer, a thermo stable luciferase (UltraGlo™ recombinant luciferase), magnesium and luciferin. Luciferin reacts with ATP producing oxyluciferin, AMP and light. The luminescence signal is proportional to the ATP content. The value of negative (neutral) control is determined for each assay plate by taking the average of 16 negative control wells. The neurogenic compound response is calculated for each compound as (compound/Negative Control)*100. The values of EC150 from the dose response curve are determined for each test compound. The EC150 is the compound concentration at which 150% activity of control (100%) is reached.
(ATP-based viability assays read luminescence as a measure of living cells.)

`NC(=O)c1cnc2cncc(-c3ccc(CO)cc3)c2n1` [Example 29, 8-(4-(Hydroxymethyl)phenyl)pyrido[4,3-b]pyrazine-2-carboxamide]: the EC (150% of control) is 0.05 µM.

On to `NC(=O)c1cnc2cncc(-c3ccccc3F)c2n1` [Example 16, 8-(2-Fluorophenyl)pyrido[4,3-b]pyrazine-2-carboxamide], for which the EC (150% of control) turned out to be 0.06 µM.

Take `NC(=O)c1cnc2cncc(-c3ccc(C(F)(F)F)cc3F)c2n1` [Example 17, 8-(2-Fluoro-4-(trifluoromethyl)phenyl)pyrido[4,3-b]pyrazine-2-carboxamide]: the EC (150% of control) is 0.08 µM.

As for `NC(=O)c1cnc2cncc(-c3ccc(Cl)c(F)c3)c2n1` [Example 23, 8-(4-Chloro-3-fluorophenyl)pyrido[4,3-b]pyrazine-2-carboxamide], the EC (150% of control) was found to be 0.1 µM.

`O=C(c1cnc2cncc(-c3ccc(C(F)(F)F)cc3)c2n1)N1CCS(=O)(=O)CC1` [Example 33, (1,1-Dioxo-1,4-thiazinan-4-yl)-[8-[4-(trifluoromethyl)phenyl]pyrido[3,4-b]pyrazin-2-yl]methanone] registered an EC (150% of control) of 1.65 µM.

In turn, `O=C(c1cnc2cncc(-c3ccc(Cl)nc3)c2n1)N1CCC(O)C1` (stereo not drawn) [Example 43, (8-(6-Chloropyridin-3-yl)pyrido[4,3-b]pyrazin-2-yl)(3-hydroxypyrrolidin-1-yl)methanone] displayed an EC (150% of control) of 0.03 µM.

Molecule `CC(NC(=O)c1cnc2cncc(-c3ccnn3C)c2n1)C(C)(C)O` (stereo not drawn) [Example 49, N-(3-Hydroxy-3-methylbutan-2-yl)-8-(1-methyl-1H-pyrazol-5-yl)pyrido[4,3-b]pyrazine-2-carboxamide] returned an EC (150% of control) of 0.02 µM.

In turn, `Cc1ccc(-c2cncc3ncc(C(=O)NC(C)C(C)(C)O)nc23)cn1` (stereo not drawn) [Example 51, N-(3-Hydroxy-3-methylbutan-2-yl)-8-(6-methylpyridin-3-yl)pyrido[4,3-b]pyrazine-2-carboxamide] yielded an EC (150% of control) of 0.08 µM.

Turning to `NC(=O)c1cnc2cncc(-c3ccc(Cl)cc3Cl)c2n1` [Example 13, 8-(2,4-Dichlorophenyl)pyrido[4,3-b]pyrazine-2-carboxamide], the EC (150% of control) was determined as 0.28 µM.

The molecule `O=C(c1cnc2cncc(-c3ccc(Cl)c(F)c3)c2n1)N1CCC(O)C1` (stereo not drawn) [Example 44, (8-(4-Chloro-3-fluorophenyl)pyrido[4,3-b]pyrazin-2-yl)(3-hydroxypyrrolidin-1-yl)methanone] gave an EC (150% of control) of 0.27 µM.

For the molecule `O=C(c1cnc2cncc(-c3ccc(Cl)cc3)c2n1)N1CCC(O)C1` (stereo not drawn) [Example 30, (8-(4-Chlorophenyl)pyrido[4,3-b]pyrazin-2-yl)(3-hydroxypyrrolidin-1-yl)methanone], the EC (150% of control) amounted to 0.69 µM.

As for `NC(=O)c1cnc2cncc(C3=CCOCC3)c2n1` [Example 25, 8-(3,6-Dihydro-2H-pyran-4-yl)pyrido[4,3-b]pyrazine-2-carboxamide], the EC (150% of control) was determined as 0.66 µM.

In the case of `CC(NC(=O)c1cnc2cncc(-c3ccc(C(F)(F)F)cc3)c2n1)C(C)(C)O` (stereo not drawn) [Example 6, N-(3-Hydroxy-3-methylbutan-2-yl)-8-(4-(trifluoromethyl)phenyl)pyrido[4,3-b]pyrazine-2-carboxamide], the EC (150% of control) was 0.38 µM.

Regarding `NC(=O)c1cnc2cncc(-c3ccc(OC(F)(F)F)cc3)c2n1` [Example 19, 8-(4-(Trifluoromethoxy)phenyl)pyrido[4,3-b]pyrazine-2-carboxamide], the EC (150% of control) worked out at 0.09 µM.

`N#CC1(NC(=O)c2cnc3cncc(-c4ccc(Cl)cc4)c3n2)CC1` [Example 7, 8-(4-Chlorophenyl)-N-(1-cyanocyclopropyl)pyrido[4,3-b]pyrazine-2-carboxamide] displayed an EC (150% of control) of 0.39 µM.

`CC(C)(C)NC(=O)c1cnc2cncc(-c3ccc(C(F)(F)F)cc3)c2n1` [Example 35, N-tert-Butyl-8-(4-(trifluoromethyl)phenyl)pyrido[4,3-b]pyrazine-2-carboxamide] showed an EC (150% of control) of 0.32 µM.

Regarding `CC(NC(=O)c1cnc2cncc(-c3cc(F)c(F)c(F)c3)c2n1)C(C)(C)O` (stereo not drawn) [Example 47, N-(3-Hydroxy-3-methylbutan-2-yl)-8-(3,4,5-trifluorophenyl)pyrido[4,3-b]pyrazine-2-carboxamide], the EC (150% of control) amounted to 0.03 µM.

For the molecule `O=C(c1cnc2cncc(-c3cccc(OC(F)(F)F)c3)c2n1)N1CCC(O)C1` (stereo not drawn) [Example 41, (3-Hydroxypyrrolidin-1-yl)(8-(3-(trifluoromethoxy)phenyl)pyrido[4,3-b]pyrazin-2-yl)methanone], the EC (150% of control) was found to be 0.6 µM.

The molecule `O=C(c1cnc2cncc(-c3ccc(C(F)(F)F)cc3)c2n1)N1CCC(O)C1` (stereo not drawn) [Example 28, (3-Hydroxypyrrolidin-1-yl)(8-(4-(trifluoromethyl)phenyl)pyrido[4,3-b]pyrazin-2-yl)methanone] had an EC (150% of control) of 0.29 µM.

`O=C(NCc1ccccc1)c1cnc2cncc(-c3ccc(Cl)cc3)c2n1` [Example 12, N-Benzyl-8-(4-chlorophenyl)pyrido[4,3-b]pyrazine-2-carboxamide] returned an EC (150% of control) of 0.26 µM.

In the case of `NC(=O)c1cnc2cncc(-c3cccc(OC(F)(F)F)c3)c2n1` [Example 21, 8-(3-(Trifluoromethoxy)phenyl)pyrido[4,3-b]pyrazine-2-carboxamide], the EC (150% of control) was 0.21 µM.

Molecule `O=C(NCc1ccccc1)c1cnc2cncc(-c3cccnc3)c2n1` [Example 31, N-Benzyl-8-(pyridin-3-yl)pyrido[4,3-b]pyrazine-2-carboxamide] displayed an EC (150% of control) of 0.47 µM.

In turn, `NC(=O)c1cnc2cncc(-c3ccc(F)cc3)c2n1` [Example 14, 8-(4-Fluorophenyl)pyrido[4,3-b]pyrazine-2-carboxamide] showed an EC (150% of control) of 0.1 µM.

Turning to `NC(=O)c1cnc2cncc(-c3cccc(C(F)(F)F)c3)c2n1` [Example 26, 8-(3-(Trifluoromethyl)phenyl)pyrido[4,3-b]pyrazine-2-carboxamide], the EC (150% of control) was determined as 0.43 µM.

On to `O=C(c1cnc2cncc(Br)c2n1)N1CCOCC1` [Example 4, (8-Bromopyrido[4,3-b]pyrazin-2-yl)(morpholino)methanone], for which the EC (150% of control) amounted to 0.07 µM.

For `NC(=O)c1cnc2cncc(-c3ccc(Cl)cc3)c2n1` [Example 1, 8-(4-Chlorophenyl)pyrido[4,3-b]pyrazine-2-carboxamide], the EC (150% of control) stood at 0.21 µM.

For `O=C(NCc1ccccc1)c1cnc2cncc(-c3ccc(C(F)(F)F)cc3)c2n1` [Example 11, N-Benzyl-8-(4-(trifluoromethyl)phenyl)pyrido[4,3-b]pyrazine-2-carboxamide], the EC (150% of control) stood at 0.41 µM.

`NC(=O)c1cnc2cncc(-c3cc(C(F)(F)F)ccc3F)c2n1` [Example 20, 8-(2-Fluoro-5-(trifluoromethyl)phenyl)pyrido[4,3-b]pyrazine-2-carboxamide] came in with an EC (150% of control) of 0.22 µM.

For the molecule `O=C(c1cnc2cncc(-c3ccc(Cl)cc3Cl)c2n1)N1CCC(O)C1` (stereo not drawn) [Example 39, (8-(2,4-Dichlorophenyl)pyrido[4,3-b]pyrazin-2-yl)(3-hydroxypyrrolidin-1-yl)methanone], the EC (150% of control) is 0.11 µM.

The molecule `NC(=O)c1cnc2cncc(-c3cc(F)c(F)c(F)c3)c2n1` [Example 15, 8-(3,4,5-Trifluorophenyl)pyrido[4,3-b]pyrazine-2-carboxamide] displayed an EC (150% of control) of 0.55 µM.

As for `CC(NC(=O)c1cnc2cncc(-c3ccccc3Cl)c2n1)C(C)(C)O` (stereo not drawn) [Example 37, 8-(2-Chlorophenyl)-N-(3-hydroxy-3-methylbutan-2-yl)pyrido[4,3-b]pyrazine-2-carboxamide], the EC (150% of control) was 1.13 µM.

Take `O=C(c1cnc2cncc(-c3ccc(C(F)(F)F)cc3)c2n1)N1CCOCC1` [Example 10, Morpholino(8-(4-(trifluoromethyl)phenyl)pyrido[4,3-b]pyrazin-2-yl)methanone]: the EC (150% of control) came out at 2.96 µM.

The molecule `NC(=O)c1cnc2cncc(-c3ccc(C(F)(F)F)c(F)c3)c2n1` [Example 24, 8-(3-Fluoro-4-(trifluoromethyl)phenyl)pyrido[4,3-b]pyrazine-2-carboxamide] registered an EC (150% of control) of 0.18 µM.

As for `O=C(c1cnc2cncc(-c3ccc(CO)cc3)c2n1)N1CCC(O)C1` (stereo not drawn) [Example 48, (8-(4-(Hydroxymethyl)phenyl)pyrido[4,3-b]pyrazin-2-yl)(3-hydroxypyrrolidin-1-yl)methanone], the EC (150% of control) was 0.67 µM.

With `NC(=O)c1cnc2cncc(-c3ccc(C(F)(F)F)cc3)c2n1` [Example 2, 8-(4-(Trifluoromethyl)phenyl)pyrido[4,3-b]pyrazine-2-carboxamide], the EC (150% of control) stood at 0.3 µM.

Molecule `N#Cc1ccc(-c2cncc3ncc(C(N)=O)nc23)cc1` [Example 34, 8-(4-Cyanophenyl)pyrido[4,3-b]pyrazine-2-carboxamide] displayed an EC (150% of control) of 0.15 µM.
